{"source": "patent US6420405B2", "about": "“Pharmaceutical composition for angiotensin II-mediated diseases” (Takeda Chemical Industries, Ltd., priority 1993, dated 2002)", "assay_type_in_all_cases": "in vivo, rat", "key": {"[1]": {"tested_on": "Spontaneously Hypertensive Rats (SHR)", "test": "Antihypertensive activity in SHR by co-administration with a calcium antagonistic drug (Test Example 2, tail cuff)", "settings": "for blood pressure, 1 week / blood pressure, 2 weeks / blood pressure, 1 day: 5 hr after administration; for blood pressure, 1 week / blood pressure, 2 weeks / blood pressure, 1 day / blood pressure, Before admin.: male SHR; for blood pressure, Before admin.: before administration (baseline)", "protocol": "Antihypertensive Activity in Spontaneously Hypertensive Rats (SHR) by the Co-administration with a Calcium Antagonistic Drug\nMethod: Male SHR of 20 week old were divided into six groups (five animals per group). The respective groups were administered orally with the compound 1 (0.1 or 1 mg/kg, p.o.) or MDP (3 mg/kg, p.o.) alone or with a mixture of them once a day for two weeks. On the first, 7th and 14th day at 5 hr after the administration, blood pressure of each test animal was measured by the tail cuff method under unanesthesia."}, "[2]": {"tested_on": "Spontaneously Hypertensive Rats (SHR)", "test": "Antihypertensive activity in SHR by co-administration with a diuretic drug (Test Example 1, tail cuff)", "settings": "for blood pressure, 1 week / blood pressure, 2 weeks / blood pressure, 1 day: 5 hr after administration; for blood pressure, 1 week / blood pressure, 2 weeks / blood pressure, 1 day / blood pressure, Before admin.: male SHR; for blood pressure, Before admin.: before administration (baseline); for antihypertensive action: SHR", "protocol": "Antihypertensive Activity in Spontaneously Hypertensive Rats (SHR) by the Co-administration with a Diuretic Drug Method: […] The respective groups were administered orally with the compound 1(0.1 or 1 mg/kg,p.o.) or HCT (10 mg/kg, p.o.) alone or both drugs simultaneously once a day for two weeks."}, "[3]": {"tested_on": "Spontaneously Hypertensive Rats (SHR)", "test": "Antihypertensive activity in SHR by co-administration with a diuretic drug (Test Example 3, compound 2, tail cuff)", "settings": "for blood pressure, 1 week / blood pressure, 2 weeks / blood pressure, 1 day: 5 hr after administration; for blood pressure, 1 week / blood pressure, 2 weeks / blood pressure, 1 day / blood pressure, Before admin.: male SHR; for blood pressure, Before admin.: before administration (baseline); for antihypertensive action: SHR", "quoted_text": "Method: Male SHR of 20 week old were divided into 6 groups (five animals in one group). The respective groups were administered orally with the compound 2 (0.1 or 1 mg/kg,p.o.) or HCT (10 mg/kg, p.o.) alone or both drugs simultaneously once a day for two weeks. On the first, 7th and 14th day at 5 hr after the administration, blood pressure of each test animal was measured by the tail cuff method under unanesthesia."}}}
{"smiles": "CCOc1nc2cccc(C(=O)OC(C)OC(=O)OC3CCCCC3)c2n1Cc1ccc(-c2ccccc2-c2nnn[nH]2)cc1", "note": "(racemic) [Cpd. 1, (±)-1-(cyclohexyloxycarbonyloxy)ethyl 2-ethoxy-1-[[2′-(1H-tetrazol-5-yl)biphenyl-4-yl]methyl]-1H-benzimidazole-7-carboxylate]", "values": [{"measurement": "blood pressure, 1 week", "setting": "[1]; Cpd. 1 0.1 mg/kg/day p.o.", "result": "158 ± 4", "unit": "mmHg"}, {"measurement": "blood pressure, 2 weeks", "setting": "[1]; Cpd. 1 0.1 mg/kg/day p.o.", "result": "160 ± 4", "unit": "mmHg"}, {"measurement": "blood pressure, 1 day", "setting": "[1]; Cpd. 1 0.1 mg/kg/day p.o.", "result": "157 ± 2", "unit": "mmHg"}, {"measurement": "blood pressure, Before admin.", "setting": "[1]; Cpd. 1 0.1 mg/kg/day p.o.", "result": "190 ± 2", "unit": "mmHg"}, {"measurement": "blood pressure, 1 week", "setting": "[1]; Cpd. 1 1 mg/kg/day p.o.", "result": "131 ± 13", "unit": "mmHg"}, {"measurement": "blood pressure, 2 weeks", "setting": "[1]; Cpd. 1 1 mg/kg/day p.o.", "result": "142 ± 4", "unit": "mmHg"}, {"measurement": "blood pressure, 1 day", "setting": "[1]; Cpd. 1 1 mg/kg/day p.o.", "result": "148 ± 3", "unit": "mmHg"}, {"measurement": "blood pressure, Before admin.", "setting": "[1]; Cpd. 1 1 mg/kg/day p.o.", "result": "196 ± 3", "unit": "mmHg"}, {"measurement": "antihypertensive effect", "setting": "[1]; compound 1 alone, 0.1 and 1 mg/kg/day, SHR", "result": "dose dependent antihypertensive effect"}, {"measurement": "blood pressure, 1 week", "setting": "[2]; Cpd. 1 0.1 mg/kg/day p.o.", "result": "155 ± 3", "unit": "mmHg"}, {"measurement": "blood pressure, 2 weeks", "setting": "[2]; Cpd. 1 0.1 mg/kg/day p.o.", "result": "162 ± 3", "unit": "mmHg"}, {"measurement": "blood pressure, 1 day", "setting": "[2]; Cpd. 1 0.1 mg/kg/day p.o.", "result": "161 ± 5", "unit": "mmHg"}, {"measurement": "blood pressure, Before admin.", "setting": "[2]; Cpd. 1 0.1 mg/kg/day p.o.", "result": "183 ± 2", "unit": "mmHg"}, {"measurement": "blood pressure, 1 week", "setting": "[2]; Cpd. 1 1 mg/kg/day p.o.", "result": "138 ± 2", "unit": "mmHg"}, {"measurement": "blood pressure, 2 weeks", "setting": "[2]; Cpd. 1 1 mg/kg/day p.o.", "result": "135 ± 3", "unit": "mmHg"}, {"measurement": "blood pressure, 1 day", "setting": "[2]; Cpd. 1 1 mg/kg/day p.o.", "result": "153 ± 5", "unit": "mmHg"}, {"measurement": "blood pressure, Before admin.", "setting": "[2]; Cpd. 1 1 mg/kg/day p.o.", "result": "186 ± 2", "unit": "mmHg"}, {"measurement": "antihypertensive action", "setting": "[2]; compound 1 alone, 0.1 and 1 mg/kg/day", "result": "dose dependent antihypertensive action"}]}
{"smiles": "CCOc1nc2cccc(C(=O)O)c2n1Cc1ccc(-c2ccccc2-c2nc(=O)o[nH]2)cc1", "note": "[Cpd. 2, 2-ethoxy-1-[[2′-(2,5-dihydro-5-oxo-1,2,4-oxadiazole-3-yl)biphenyl-4-yl]methyl]-1H-benzimidazole-7-carboxylic acid]", "values": [{"measurement": "blood pressure, 1 week", "setting": "[3]; Cpd. 2 0.1 mg/kg/day p.o.", "result": "182 ± 6", "unit": "mmHg"}, {"measurement": "blood pressure, 2 weeks", "setting": "[3]; Cpd. 2 0.1 mg/kg/day p.o.", "result": "191 ± 8", "unit": "mmHg"}, {"measurement": "blood pressure, 1 day", "setting": "[3]; Cpd. 2 0.1 mg/kg/day p.o.", "result": "187 ± 6", "unit": "mmHg"}, {"measurement": "blood pressure, Before admin.", "setting": "[3]; Cpd. 2 0.1 mg/kg/day p.o.", "result": "215 ± 5", "unit": "mmHg"}, {"measurement": "blood pressure, 1 week", "setting": "[3]; Cpd. 2 1 mg/kg/day p.o.", "result": "161 ± 4", "unit": "mmHg"}, {"measurement": "blood pressure, 2 weeks", "setting": "[3]; Cpd. 2 1 mg/kg/day p.o.", "result": "165 ± 3", "unit": "mmHg"}, {"measurement": "blood pressure, 1 day", "setting": "[3]; Cpd. 2 1 mg/kg/day p.o.", "result": "175 ± 5", "unit": "mmHg"}, {"measurement": "blood pressure, Before admin.", "setting": "[3]; Cpd. 2 1 mg/kg/day p.o.", "result": "219 ± 7", "unit": "mmHg"}, {"measurement": "antihypertensive action", "setting": "[3]; compound 2 alone, 0.1 and 1 mg/kg/day", "result": "dose dependent antihypertensive action"}]}
{"smiles": "NS(=O)(=O)c1cc2c(cc1Cl)NCNS2(=O)=O", "note": "[HCT, hydrochlorothiazide, reference compound]", "values": [{"measurement": "blood pressure, 1 week", "setting": "[2]; HCT 10 mg/kg/day p.o.", "result": "177 ± 3", "unit": "mmHg"}, {"measurement": "blood pressure, 2 weeks", "setting": "[2]; HCT 10 mg/kg/day p.o.", "result": "181 ± 2", "unit": "mmHg"}, {"measurement": "blood pressure, 1 day", "setting": "[2]; HCT 10 mg/kg/day p.o.", "result": "178 ± 3", "unit": "mmHg"}, {"measurement": "blood pressure, Before admin.", "setting": "[2]; HCT 10 mg/kg/day p.o.", "result": "186 ± 3", "unit": "mmHg"}, {"measurement": "antihypertensive action", "setting": "[2]; HCT alone, 10 mg/kg/day, p.o.", "result": "did not show antihypertensive action"}, {"measurement": "blood pressure, 1 week", "setting": "[3]; HCT 10 mg/kg/day p.o.", "result": "190 ± 5", "unit": "mmHg"}, {"measurement": "blood pressure, 2 weeks", "setting": "[3]; HCT 10 mg/kg/day p.o.", "result": "195 ± 3", "unit": "mmHg"}, {"measurement": "blood pressure, 1 day", "setting": "[3]; HCT 10 mg/kg/day p.o.", "result": "188 ± 5", "unit": "mmHg"}, {"measurement": "blood pressure, Before admin.", "setting": "[3]; HCT 10 mg/kg/day p.o.", "result": "206 ± 5", "unit": "mmHg"}, {"measurement": "antihypertensive action", "setting": "[3]; HCT alone, 10 mg/kg/day, p.o.", "result": "did not show antihypertensive action"}]}
{"smiles": "COC(=O)C1=C(C)NC(C)=C(C(=O)OCCN2CCN(C(c3ccccc3)c3ccccc3)CC2)C1c1cccc([N+](=O)[O-])c1", "note": "(centres unmarked) [MDP, manidipine, reference compound]", "values": [{"measurement": "blood pressure, 1 week", "setting": "[1]; MDP 3 mg/kg/day p.o.", "result": "132 ± 5", "unit": "mmHg"}, {"measurement": "blood pressure, 2 weeks", "setting": "[1]; MDP 3 mg/kg/day p.o.", "result": "136 ± 7", "unit": "mmHg"}, {"measurement": "blood pressure, 1 day", "setting": "[1]; MDP 3 mg/kg/day p.o.", "result": "157 ± 2", "unit": "mmHg"}, {"measurement": "blood pressure, Before admin.", "setting": "[1]; MDP 3 mg/kg/day p.o.", "result": "190 ± 5", "unit": "mmHg"}]}
